The test system of the assay is keratosis pilaris. The experiment in a line: In-vivo study, patients with keratosis pilaris. The note with it: topical use; arms, buttocks, thighs, and cheeks. From the text:
During use of the skin treatment formulations, the glycolic acid is configured to react with the top layer of skin, i.e., the stratum corneum, by breaking it down while dissolving sebum and other substances that bind dead tissue together. The dead skin cells produced when exposed to the glycolic acid may then be sloughed off with gentle exfoliation, which clears blocked pores and opens comedones to reveal smoother, brighter, younger-looking skin.

Take `O=C(O)CO` [glycolic acid]: the “skin appearance in keratosis pilaris patients” value was “clearer and smoother skin”.
